PubChem BioAssay (NCI)
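Step 1: Grow cells in 96-well plates. Step 2: Expose to compound for 48 hours at 5 concentrations. Step 3: Interpolate endpoints linearly; if unreached, use highest concentration. GI50 = concentration required for 50% inhibition of growth. TGI is the concentration that stops growth completely.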

What was measured:
Assay in all cases: DTP human tumour cell line panel, 48 h
SN12C renal = tested on: SN12C renal
SNB-19 CNS = tested on: SNB-19 CNS
NCI-H522 lung = tested on: NCI-H522 lung
CCRF-CEM leukemia = tested on: CCRF-CEM leukemia
K-562 leukemia = tested on: K-562 leukemia
SK-MEL-28 melanoma = tested on: SK-MEL-28 melanoma
ACHN renal = tested on: ACHN renal
SNB-75 CNS = tested on: SNB-75 CNS
DU-145 prostate = tested on: DU-145 prostate
HS 578T breast = tested on: HS 578T breast

Row | Structure (SMILES) | TGI (SN12C renal) [µM] | TGI (SNB-19 CNS) [µM] | TGI (NCI-H522 lung) [µM] | TGI (CCRF-CEM leukemia) [µM] | TGI (K-562 leukemia) [µM] | TGI (SK-MEL-28 melanoma) [µM] | TGI (ACHN renal) [µM] | TGI (SNB-75 CNS) [µM] | GI50 (SN12C renal) [µM] | GI50 (NCI-H522 lung) [µM] | GI50 (CCRF-CEM leukemia) [µM] | GI50 (DU-145 prostate) [µM] | TGI (DU-145 prostate) [µM] | GI50 (K-562 leukemia) [µM] | GI50 (SK-MEL-28 melanoma) [µM] | GI50 (ACHN renal) [µM] | GI50 (SNB-19 CNS) [µM] | GI50 (HS 578T breast) [µM] | TGI (HS 578T breast) [µM] | GI50 (SNB-75 CNS) [µM]
1 | Cc1nnc(N=Nc2c(O)[nH]c3c(Cl)cc(Cl)cc23)n1N | > 100 | > 100 | > 100 | > 100 | > 100 | > 100 | > 100 | – | – | – | – | – | – | – | – | – | – | – | – | –
2 | CC(=O)[O-].CC(=O)[O-].O=C(N/N=C/c1cc(Cl)cc(Cl)c1O)c1ccncc1.[Ni+2] | > 100 | > 100 | > 100 | > 100 | > 100 | > 100 | > 100 | > 100 | – | – | – | – | – | – | – | – | – | – | – | –
3 | Nc1nc(Cl)cc(NCCCCCNc2cc(Cl)nc(N)n2)n1 | > 100 | > 100 | > 100 | > 100 | > 100 | > 100 | 52.2 | > 100 | – | – | – | – | – | – | – | – | – | – | – | –
4 | COCc1c(CO)cnc(C)c1OC1OC(CO)C(O)C(O)C1O (stereo unspecified) | > 100 | > 100 | > 100 | – | > 100 | > 100 | > 100 | > 100 | – | – | – | – | – | – | – | – | – | – | – | –
5 | c1ccc(N=c2snc3scc(-c4ccccc4)n23)cc1 | > 100 | > 100 | 38.4 | > 100 | > 100 | > 100 | > 100 | > 100 | – | – | – | – | – | – | – | – | – | – | – | –
6 | O=Cc1ccc(-c2ccc(-c3nc4ccccc4[nH]3)cc2)s1 | 92.2 | – | > 100 | 38.9 | 53 | > 100 | 67.1 | – | 31.6 | 26.3 | 14 | 25.8 | > 100 | 17.7 | 47.7 | 24.4 | – | – | – | –
7 | CCOC(=O)Cc1nc2ccccc2s1 | 30.5 | > 100 | 41.1 | 72.8 | 71.9 | 28.2 | 32.1 | 94.1 | – | – | – | – | – | – | – | – | – | – | – | –
8 | CCOC(CCCNCCCn1c2c(c3cc(OC)c(OC)cc3c1=O)C(=O)c1cc3c(cc1-2)OCO3)OCC | 10.8 | 12.3 | 11.3 | 6.24 | 11.5 | 12.5 | 7.66 | 10.3 | 5.04 | 5.34 | 0.759 | – | – | 5.53 | 6.22 | 1.28 | 6.13 | 5.76 | 12.7 | 0.443
9 | CC(C)N(C(=O)C1(C)CC1)C(C)C | > 100 | > 100 | > 100 | > 100 | > 100 | > 100 | > 100 | > 100 | – | – | – | – | – | – | – | – | – | – | – | –
10 | CC1=C(C(=O)Nc2ccccc2)C(c2ccc([N+](=O)[O-])cc2)C(C(=O)Nc2ccccc2)=C(C)N1 | 79.3 | 32 | 63.8 | 39.8 | 63.5 | 88.5 | > 100 | 82.1 | – | – | – | – | – | – | – | – | – | – | – | –
11 | COc1cc(Br)c(CC2(C#N)c3ccccc3C3C(N2C(=O)c2ccccc2)C3(Cl)Cl)cc1OC (stereo unspecified) | > 65.5 | > 65.5 | > 65.5 | > 65.5 | > 65.5 | > 65.5 | > 65.5 | > 65.5 | – | – | – | – | – | – | – | – | – | – | – | –
12 | O=Nc1ccc(O)c2ccccc12 | 3.22 | 6.65 | 3.48 | – | – | 6.12 | 3.14 | 3.02 | 1.38 | 1.6 | – | 1.77 | 3.22 | – | 2.59 | 1.69 | 2.31 | 0.868 | 4.18 | 1.44
13 | C[N+](C)(C)CC(=O)N/N=C(\CCC(=O)NCCc1ccccc1)CC(=O)c1ccccc1 | > 100 | > 100 | > 100 | > 100 | > 100 | – | > 100 | – | – | – | – | – | – | – | – | – | – | – | – | –
14 | NC(=O)C1c2ccccc2C=Cc2ccccc21 | > 100 | > 100 | > 100 | – | > 100 | > 100 | > 100 | > 100 | > 100 | > 100 | – | > 100 | > 100 | > 100 | > 100 | > 100 | > 100 | > 100 | > 100 | > 100
15 | O=C(CSc1nc2ccccc2nc1-c1ccccc1)Nc1ccc(Cl)cc1 | 99.2 | > 100 | 74.3 | > 100 | – | > 100 | 47.1 | 59.4 | 22.6 | 15.3 | > 100 | 55.4 | > 100 | – | 60.8 | 12.3 | 35.9 | 16.1 | 70 | 18.7
16 | COc1cc2c(c(OC)c1O)-c1ccc(OC)c(=O)cc1[C@@H](NC(=O)C(F)(F)F)CC2 | > 100 | > 100 | 0.0665 | > 100 | > 100 | > 100 | > 100 | – | – | – | – | – | > 100 | – | – | – | – | – | – | –
17 | O=C1OC(c2ccccc2)=N/C1=C\c1ccc2ccccc2c1 | > 100 | > 100 | > 100 | > 100 | > 100 | > 100 | > 100 | > 100 | – | – | – | – | – | – | – | – | – | – | – | –
18 | N.N.N.N.O=NN1CCCCCC1(P(=O)([O-])[O-])P(=O)([O-])[O-].[Pt+4].[Pt+4] | > 100 | > 100 | > 100 | > 100 | > 100 | > 100 | > 100 | > 100 | > 100 | > 100 | > 100 | – | – | > 100 | > 100 | > 100 | > 100 | – | – | > 100
19 | COC(=O)NC1(NC(=O)OC)NC(=O)c2cc(OC)c(OC)cc2N1 | > 100 | > 100 | 80 | 55.3 | > 100 | > 100 | > 100 | – | – | – | – | – | > 100 | – | – | – | – | – | 85.1 | –
20 | CCN(CC)CCCC(C)Nc1cc(-c2ccc(C(F)(F)F)cc2)c(C#N)c2nc3ccccc3n12 (stereo unspecified) | – | 11.1 | – | > 100 | – | 1.19 | 2.87 | – | – | – | 0.846 | 3.55 | 11.4 | – | 0.325 | 1.38 | 2.96 | 1.82 | 4.86 | –
21 | C[C@H]1CC[C@H]([C@@H](C)[C@H]2[C@@H](O)C[C@H]3[C@@H]4CC[C@H]5C[C@@H](O)CC[C@]5(C)[C@H]4CC[C@]23C)NC1 | 35.5 | 50.2 | 30.8 | 29 | – | 36.1 | 53.7 | – | – | – | – | – | 32 | – | – | – | – | – | 57.7 | –
